Test system: VHL-deficient and VHL-restored renal carcinoma cells (RCC4)
Experiment: Growth inhibition of VHL-deficient vs VHL-restored renal cells by drugs at mid-effective concentration
Assay type: cell-based
Conditions: mid-effective concentration of each drug; both cell lines in triplicates; FIG. 5
Method: A range of concentrations for each drug were tested to identify a suitable working concentration in which there was an effect on cells growth, but not complete death (which is more likely to be due to non-specific toxicity).

Structure (SMILES) | Sensitivity (percentage of growth inhibition) of VHL-deficient cells compared to isogenic cells in which pVHL was restored
CN(C)CCC=C1c2ccccc2CCc2ccccc21 [Amitriptyline] | significantly more sensitive
Nc1ccncc1 [Dalfampridine] | significantly more sensitive
CN(C)CCCN1c2ccccc2CCc2ccccc21 [Imipramine] | significantly more sensitive
C[N+]1(CCCCC[N+]2(C)CCCC2)CCCC1 [Pentolinium] | significantly more sensitive
COc1ccc(CCN(C)CCCC(C#N)(c2ccc(OC)c(OC)c2)C(C)C)cc1OC (centres unmarked) [Verapamil] | significantly more sensitive

— US20150331992A1, “CANCER PROGNOSIS AND THERAPY BASED ON SYNTHEIC LETHALITY” (Ramot at Tel-Aviv University Ltd., priority 2014, published 2015)
